We go through 23 compounds from patent publication US3947589A (priority 1971, dated 1976).

Assay [1] relates to Piricularia oryzae (rice blast). As to conditions: 500 ppm.
Assay [2] shares this test system. The experiment in a line: whole plant or invertebrate. Particulars: Pyricularia oryzae, 48 h, read-out: Preventive value.
The test system of assay [3] is citrus melanose. The assay is described as follows: inhibitory test against Citrus melanose. Type of assay: in vivo. As to conditions: for pest or weed control at 500 ppm: read-out: Preventive value; for Extent infection: Table 4, untreated 53; for Extent infection / Extent of infection: 500 ppm, about 2-3 weeks after inoculation; for Extent of infection: Table 5, untreated 57. The source says: Experimental example 3 : inhibitory test against Citrus melanose a. Test plant: shoots of about 3 years grown seedlings of citrus "Onshu" (2 - 4 trees planted in about 20 cm claypot) b. Solution used for test
As control fungicide, "Daisen" [trade (trade name, product of Nihon-NohyakuCo., Ltd., wettable powder containing zinc ethylene bis (dithiocarbamate)]was sprayed at 1000 ppm. c. Inoculum and the method of inoculation
In order to prepare suspension of pycnospores, distilled and sterilized water was poured on the culture twigs with citrus melanose in a test tube. The suspension containing about 200 of pycnospores was prepared under the observation of microscope of 150 magnification and then sprayed inoculation on the test plants treated as above. After inoculation, the test plants were placed in the inoculation box at 27°C and relative humidity of above 95% for about 3 days. Then, they were transferred into the greenhouse. […]
d. The method of inspection
About 2 - 3 weeks after inoculation, the entire leaves of shoots was inspected for the development of disease and the state of infection was evaluated on a scale of 0 to 3 as follows:
1 : 1 -- 50 of disease spots
2 : 51 -- 150 of disease spots
3 : above 151 of disease spots
The extent of infection and the preventive value were calculated according to the following equations (I) and (II), respectively. [formula] wherein n1, n2 and n3 are number of leaves inspected to be the states of infection 1, 2 and 3, respectively and N is the total number of leaves. [formula]

Assay [4] has as its system cucumber downy mildew (Pseudoperonospore cubensis). The assay is described as follows: inhibitory test against cucumber downy mildew. It is filed as in vivo. As to conditions: for pest or weed control at 500 ppm: Cucumis sativus; for Number of leaves infected (outside) / Number of leaves infected (inside): 23rd of May. The method, then: Experimental example 4 : inhibitory test against cucumber downy mildew
Cucumber seeds (variety "Shinhikari No. A") were planted in seed-beds at the biginning of October, three cucumber seeds being planted per seed-bed, and they were grown in a greenhouse made of vinyl resin. This experiment was performed as three-repeated cultivation.
The test plants treated thus were left to spontaneous infection.

Setting [5] is: Table 1, 50 ml per pot, two days after infection, untreated 33.0.
[6] abbreviates: Table 4, about 2-3 weeks after inoculation.
Where [7] appears, read: Table 5, about 2-3 weeks after inoculation.
The mark [8] stands for this setting: Table 7, 500 ppm, four sprays, inside of leaves, read-out: Preventive value (inside).
[9] abbreviates: Table 7, 500 ppm, four sprays, outside of leaves, read-out: Preventive value (outside).
The mark [10] stands for this setting: Table 7, 500 ppm, four sprays, untreated 13.
Where [11] appears, read: Table 7, 500 ppm, four sprays, untreated 15.
Setting [12] is: Table 6, 500 ppm, four sprays, inside of leaves, read-out: Preventive value (inside).
The mark [13] stands for this setting: Table 6, 500 ppm, four sprays, outside of leaves, read-out: Preventive value (outside).
The mark [14] stands for this setting: Table 6, 500 ppm, four sprays, untreated 12.
Setting [15] is: Table 6, 500 ppm, four sprays, untreated 22.

Read-outs that look alike come from different tables or passages of the source.

For `CCCCCCCCCCCCCCCCCC(=O)NCC(=O)O` [compound 6], the “Average number of disease lesions per leaf” value (shortened to “Average number … per leaf”) in assay [1] (setting [5]) worked out at 6.6. In addition, the pest or weed control at 500 ppm was 80% in assay [2] and 68% in assay [3] (setting [6]). The compound also showed an Extent infection in assay [3] of 17%.
For the compound `CCCCCCCCCCCCCCCCCC(=O)N[C@@H](CCCNC(=N)N)C(=O)OCC` [compound 28], the “Average number … per leaf” value in assay [1] (Table 2, untreated 34.2) is given as 7.3. For the same compound, the pest or weed control at 500 ppm amounted to 78% in assay [2] and 73% in assay [3] (setting [7]). Further, in assay [3], the Extent of infection is recorded as 15%.
Regarding `CCCCCCCCCCCC(=O)N[C@@H](CCCN)C(=O)OC` [compound 24], the “Average number … per leaf” value in assay [1] (Table 2, untreated 34.2) was 7.3. The pest or weed control at 500 ppm was 47% in assay [4] (setting [8]), 52% in assay [4] (setting [9]), 78% in assay [2] and 68% in assay [3] (setting [7]). Besides, the “Number of leaves infected (outside)” value in assay [4] (setting [10]) was 6. Further, in assay [4] (setting [11]), the “Number of leaves infected (inside)” value is on record as 8. Also, the Extent of infection in assay [3] worked out at 18%.
Regarding `CCCCCCCCCCCC(=O)N[C@@H](CCCNC(=N)N)C(=O)OCC` [compound 27], the “Average number … per leaf” value in assay [1] (Table 2, untreated 34.2) came out at 6.8. Further, the pest or weed control at 500 ppm in assay [4] (setting [8]) worked out at 40%; in assay [4] (setting [9]), 52%; in assay [2] it was 80%; in assay [3] (setting [7]), 75%. Besides, in assay [4] (setting [10]), the “Number of leaves infected (outside)” value is on record as 6. The “Number of leaves infected (inside)” value in assay [4] (setting [11]) is listed as 9. In assay [3], this compound displayed an Extent of infection of 14%.
As to `CCCCCCCCCCCCCCCCCC(=O)NC(C)C(=O)O` (stereo not drawn) [compound 7], the “Average number … per leaf” value in assay [1] (setting [5]) came out at 5.9. Further, the pest or weed control at 500 ppm came out at 64% in assay [4] (setting [12]), 58% in assay [4] (setting [13]) and 82% in assay [2]. In assay [4] (setting [14]), the “Number of leaves infected (outside)” value was 5. The “Number of leaves infected (inside)” value in assay [4] (setting [15]) came out at 8.
Turning to `CCCCCCCCCCCC(=O)N[C@@H](CC(=O)O)C(=O)O` [compound 10], in assay [1] (setting [5]), the “Average number … per leaf” value is 11.6. Moreover, the pest or weed control at 500 ppm came out at 65% in assay [2] and 74% in assay [3] (setting [6]). This compound also came in with an Extent infection in assay [3] of 14%.
Regarding `CCCCCCCCCCCC(=O)N[C@H](C(=O)OCC)C(C)C` [compound 19], in assay [1] (setting [5]), the “Average number … per leaf” value is on record as 7.3. Also, the pest or weed control at 500 ppm in assay [2] amounted to 78%.
On to `CCCCCCCCCCCC(=O)NC(Cc1ccc([N+](=O)[O-])cc1)C(=O)O` (stereo not drawn) [compound 3], for which the “Average number … per leaf” value in assay [1] (setting [5]) worked out at 8.9. In addition, the pest or weed control at 500 ppm was determined as 59% in assay [4] (setting [12]), 50% in assay [4] (setting [13]), 73% in assay [2] and 50% in assay [3] (setting [6]). Besides, the “Number of leaves infected (outside)” value in assay [4] (setting [14]) amounted to 6. In addition, the “Number of leaves infected (inside)” value in assay [4] (setting [15]) is listed as 9. Moreover, the Extent infection in assay [3] is recorded as 26%.
On to `C=CCCCCCCCCC(=O)N[C@@H](CC(C)C)C(=O)O` [compound 14], for which the “Average number … per leaf” value in assay [1] (setting [5]) is recorded as 5.6. Besides, the pest or weed control at 500 ppm in assay [2] was 83%; in assay [3] (setting [6]) it was 65%. In assay [3], this compound yielded an Extent infection of 19%.
Take `CCCCCCCC/C=C\CCCCCCCC(=O)NCC(=O)O` [compound 5]: the “Average number … per leaf” value in assay [1] (setting [5]) is 11.0. Besides, the pest or weed control at 500 ppm in assay [2] was 67%.
As for `CCCCCCCCCCCC(=O)N[C@H](C(=O)O)C(C)C` [compound 2], the “Average number … per leaf” value in assay [1] (setting [5]) is 6.6. Besides, the pest or weed control at 500 ppm in assay [2] turned out to be 80%.
For `CCCCCCCCCCCCCC(=O)N[C@@H](CCC(=O)O)C(=O)O` [compound 20], the “Average number … per leaf” value in assay [1] (setting [5]) is given as 9.9. In assay [2], the pest or weed control at 500 ppm turned out to be 70%.
Regarding `CCCCCCCCCC(=O)NC(CCSC)C(=O)O` (stereo not drawn) [compound 16], the “Average number … per leaf” value in assay [1] (setting [5]) is given as 11.0. Also, the figures for the pest or weed control at 500 ppm in assay [2] and in assay [3] (setting [6]) were 67% and 54%, respectively. The compound also showed an Extent infection in assay [3] of 24%.
`CCCCCCCCCCCC(=O)N[C@H](C(=O)O)[C@@H](C)O` [compound 11]: the “Average number … per leaf” value in assay [1] (setting [5]) worked out at 7.6. For the same compound, the pest or weed control at 500 ppm in assay [2] was 77%.
For `CCCCCCCCCCCC(=O)N[C@@H](CC(C)C)C(=O)O` [compound 13], the “Average number … per leaf” value in assay [1] (setting [5]) is recorded as 8.9. For the same compound, the results for the pest or weed control at 500 ppm in assay [4] (setting [12]), in assay [4] (setting [13]) and in assay [2] were 59%, 42% and 73%, respectively. In addition, the “Number of leaves infected (outside)” value in assay [4] (setting [14]) is recorded as 7. Besides, the “Number of leaves infected (inside)” value in assay [4] (setting [15]) came to 9.
`CCCCCCCCCCCCCC(=O)N[C@@H](CCCCN)C(=O)OC` [compound 23]: in assay [1] (Table 2, untreated 34.2), the “Average number … per leaf” value was 6.2. Moreover, the pest or weed control at 500 ppm in assay [4] (setting [8]) worked out at 47%; in assay [4] (setting [9]), 45%; in assay [2], 82%; in assay [3] (setting [7]), 64%. Besides, the “Number of leaves infected (outside)” value in assay [4] (setting [10]) stood at 7. Further, the “Number of leaves infected (inside)” value in assay [4] (setting [11]) is recorded as 8. This compound also displayed an Extent of infection in assay [3] of 21%.
As to `CCCCCCCCCC(=O)N[C@@H](Cc1ccccc1)C(=O)O` [compound 12], the “Average number … per leaf” value in assay [1] (setting [5]) is on record as 11.6. The pest or weed control at 500 ppm in assay [4] (setting [12]) was determined as 73%; in assay [4] (setting [13]), 67%; in assay [2], 65%. For the same compound, the “Number of leaves infected (outside)” value in assay [4] (setting [14]) was found to be 4. For the same compound, in assay [4] (setting [15]), the “Number of leaves infected (inside)” value was determined as 6.
Regarding `CCCCCCCCCCCCCC(=O)N[C@@H](CCCNC(=N)N)C(=O)OCC` [compound 21], the “Average number … per leaf” value in assay [1] (Table 2, untreated 34.2) was found to be 8.5. Moreover, the pest or weed control at 500 ppm in assay [4] (read-out: Preventive value (inside)) was found to be 47%; in assay [4] (read-out: Preventive value (outside)), 55%; in assay [2], 75%; in assay [3] (setting [7]), 73%. Also, the “Number of leaves infected (outside)” value in assay [4] (setting [10]) is on record as 5. Also, in assay [4] (setting [11]), the “Number of leaves infected (inside)” value stood at 8. The Extent of infection in assay [3] was determined as 15%.
`CCCCCCCCCCCC(=O)NCC(=O)O` [compound 1]: in assay [1] (setting [5]), the “Average number … per leaf” value stood at 1.7. In addition, the pest or weed control at 500 ppm was determined as 73% in assay [4] (setting [12]), 67% in assay [4] (setting [13]), 95% in assay [2] and 72% in assay [3] (setting [6]). Further, the “Number of leaves infected (outside)” value in assay [4] (setting [14]) is on record as 4. The “Number of leaves infected (inside)” value in assay [4] (setting [15]) came out at 6. The compound also showed an Extent infection in assay [3] of 15%.
As to `CCCCCCCCCCCCCC(=O)NCC(=O)O` [compound 9], the “Average number … per leaf” value in assay [1] (setting [5]) came out at 9.9. The pest or weed control at 500 ppm in assay [4] (setting [12]) amounted to 59%; in assay [4] (setting [13]), 42%; in assay [2], 70%. Besides, in assay [4] (setting [14]), the “Number of leaves infected (outside)” value is given as 7. The “Number of leaves infected (inside)” value in assay [4] (setting [15]) is 9.
On to `CCCCCCCCCCCC(=O)N(C)CC(=O)O` [compound 15], for which, in assay [1] (setting [5]), the “Average number … per leaf” value is 7.4. The pest or weed control at 500 ppm in assay [2] turned out to be 88%.
Turning to `CCCCCCCCCCCC(=O)N[C@@H](CCCNC(N)=O)C(=O)OC` [compound 26], the “Average number … per leaf” value in assay [1] (Table 2, untreated 34.2) is 6.2. For the same compound, the pest or weed control at 500 ppm in assay [2] amounted to 82%.
Take `CCCCCCCCCCCCCC(=O)N[C@@H](Cc1c[nH]cn1)C(=O)OC` [compound 25]: the “Average number … per leaf” value in assay [1] (Table 2, untreated 34.2) is 5.1. Also, the pest or weed control at 500 ppm in assay [2] is 85%.
